Tests used:
[1] = biological target: T1, intracellular phosphorylation of EGFR in NCI-H1975 cell line that harbors the EGFR L858R T790M mutations (Homo sapiens, UniProt P00533, L858R/T790M); test: NCI-H1975 pEGFR AlphaLISA assay; format: cell-based; conditions: NCI-H1975 cells (EGFR L858R T790M), p-EGFR (Tyr1068), 4-5 hours incubation; read-out: Ext pEGFR H1975 GMean IC50 (nM) Protocol: @Pharmaron AlphaLISA (Num)
T1 construct: NCI-H1975 cell line that harbors the EGFR L858R T790M mutations (ATCC, CRL-5908); host or cells: NCI-H1975
Experimental: On the next day, the test compounds and DMSO control were added into H1975 cell plate followed by incubation at 37C/5% CO2 for 4-5 hours. […] Then 5 μL of a donor bead mix was added to each well followed by overnight incubation at room temperature in dark. On the next day, the plate was read at a compatible plate reader to obtain pEGFR signal. Percent of pEGFR inhibition was plotted against log concentration of compounds to generate IC50 values.

EGFR (L858R T790M C797S) = biological target: T2, EGFR (L858R T790M C797S) (Homo sapiens, UniProt P00533, C797S/L858R/T790M); test: Biochemical EGFR inhibition assay (Caliper mobility shift), EGFR LRTMCS; conditions: LRTMCS (PH) IC50 (nM) @ 1 mM ATP (Num), EGFR LRTMCS mutant
T2 construct: purchased SignalChem E10-122VG
Method in brief: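 Caliper mobility shift read-out: product and substrate peptides separated by electrophoresis and quantified. Reactions at 25° C. taken to 10–20% peptide phosphorylation, quenched with 35 mM EDTA. Apparent IC50 from percent activity vs log [compound].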

T2 sequence (P00533 25-1210 T790M/C797S/L858R): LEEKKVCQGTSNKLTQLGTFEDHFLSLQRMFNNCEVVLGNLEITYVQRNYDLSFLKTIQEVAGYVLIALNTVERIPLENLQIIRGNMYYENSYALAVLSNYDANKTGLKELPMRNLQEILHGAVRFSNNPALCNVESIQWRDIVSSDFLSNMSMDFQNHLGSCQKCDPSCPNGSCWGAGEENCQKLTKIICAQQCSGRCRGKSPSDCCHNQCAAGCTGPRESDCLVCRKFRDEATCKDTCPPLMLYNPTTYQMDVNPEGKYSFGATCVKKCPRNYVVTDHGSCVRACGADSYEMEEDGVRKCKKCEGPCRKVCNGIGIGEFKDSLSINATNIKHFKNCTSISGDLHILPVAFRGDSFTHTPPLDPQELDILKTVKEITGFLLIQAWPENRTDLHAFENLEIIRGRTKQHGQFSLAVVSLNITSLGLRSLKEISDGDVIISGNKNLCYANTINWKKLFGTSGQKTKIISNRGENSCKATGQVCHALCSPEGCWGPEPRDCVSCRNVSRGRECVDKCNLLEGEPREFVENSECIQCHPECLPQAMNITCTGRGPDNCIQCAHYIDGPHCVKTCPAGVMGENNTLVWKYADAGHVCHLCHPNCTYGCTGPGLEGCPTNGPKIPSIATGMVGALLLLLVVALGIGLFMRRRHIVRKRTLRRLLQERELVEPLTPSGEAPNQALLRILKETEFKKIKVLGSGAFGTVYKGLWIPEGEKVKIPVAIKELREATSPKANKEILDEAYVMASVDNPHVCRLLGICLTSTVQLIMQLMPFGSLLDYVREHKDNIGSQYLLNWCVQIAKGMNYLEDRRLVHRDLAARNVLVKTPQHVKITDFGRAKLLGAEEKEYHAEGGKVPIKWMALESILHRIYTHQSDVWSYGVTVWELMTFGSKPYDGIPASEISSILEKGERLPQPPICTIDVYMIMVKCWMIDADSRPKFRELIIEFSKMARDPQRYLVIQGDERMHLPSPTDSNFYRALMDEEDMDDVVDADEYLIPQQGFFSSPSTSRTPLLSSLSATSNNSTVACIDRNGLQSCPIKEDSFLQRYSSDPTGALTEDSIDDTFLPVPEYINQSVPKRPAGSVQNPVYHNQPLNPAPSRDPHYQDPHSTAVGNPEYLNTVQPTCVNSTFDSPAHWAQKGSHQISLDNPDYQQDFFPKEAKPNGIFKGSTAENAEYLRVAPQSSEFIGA
T1 sequence (P00533 25-1210 T790M/L858R): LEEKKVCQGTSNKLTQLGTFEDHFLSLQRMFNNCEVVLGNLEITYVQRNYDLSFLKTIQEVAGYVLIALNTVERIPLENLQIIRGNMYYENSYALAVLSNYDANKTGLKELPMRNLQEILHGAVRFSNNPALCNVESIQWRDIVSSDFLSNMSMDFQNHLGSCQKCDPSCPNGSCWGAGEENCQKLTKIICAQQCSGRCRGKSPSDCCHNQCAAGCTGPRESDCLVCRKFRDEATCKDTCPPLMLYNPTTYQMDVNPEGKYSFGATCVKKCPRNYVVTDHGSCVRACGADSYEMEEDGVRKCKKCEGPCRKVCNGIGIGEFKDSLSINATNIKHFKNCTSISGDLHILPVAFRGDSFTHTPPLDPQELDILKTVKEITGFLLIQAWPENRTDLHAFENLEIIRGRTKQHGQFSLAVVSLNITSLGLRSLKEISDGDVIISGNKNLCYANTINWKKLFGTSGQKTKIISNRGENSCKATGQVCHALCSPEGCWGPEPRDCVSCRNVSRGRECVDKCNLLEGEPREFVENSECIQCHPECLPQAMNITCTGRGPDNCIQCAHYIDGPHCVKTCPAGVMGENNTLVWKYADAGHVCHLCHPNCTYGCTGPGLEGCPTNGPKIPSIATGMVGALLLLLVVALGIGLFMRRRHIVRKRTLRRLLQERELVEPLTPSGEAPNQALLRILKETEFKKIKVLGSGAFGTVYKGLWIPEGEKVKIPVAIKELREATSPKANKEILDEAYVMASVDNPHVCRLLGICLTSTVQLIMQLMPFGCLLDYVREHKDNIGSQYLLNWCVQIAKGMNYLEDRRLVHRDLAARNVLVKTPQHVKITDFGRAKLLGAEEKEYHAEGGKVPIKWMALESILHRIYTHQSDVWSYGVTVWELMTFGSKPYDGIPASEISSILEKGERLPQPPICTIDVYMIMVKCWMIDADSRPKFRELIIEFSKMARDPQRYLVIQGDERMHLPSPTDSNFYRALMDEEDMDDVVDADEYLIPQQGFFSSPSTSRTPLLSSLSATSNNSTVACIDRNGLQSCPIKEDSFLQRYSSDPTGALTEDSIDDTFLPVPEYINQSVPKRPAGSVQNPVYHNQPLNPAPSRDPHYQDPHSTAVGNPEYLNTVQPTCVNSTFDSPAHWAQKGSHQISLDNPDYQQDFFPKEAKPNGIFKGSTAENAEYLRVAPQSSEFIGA

SMILES | IC50 [1] [nM] | IC50 (EGFR (L858R T790M C797S)) [nM]
CC(C)Oc1cnc(N2CC[C@H]2C)c2cnc(Nc3ccnc(N4CC[C@@H](O)[C@@H](F)C4)n3)cc12 [Example 153, (3S,4R)-3-fluoro-1-(4-((5-isopropoxy-8-((R)-2-methylazetidin-1-yl)-2,7-naphthyridin-3-yl)amino)pyrimidin-2-yl)piperidin-4-ol] | > 50 | 30 to 100
CC(C)c1cnc(N2C[C@](C)(O)[C@H]2C)c2cnc(Nc3ccnc(N4CC[C@@H](O)[C@@](C)(F)C4)n3)cc12 [Example 78, (3S,4R)-3-fluoro-1-(4-((8-((2R,3S)-3-hydroxy-2,3-dimethylazetidin-1-yl)-5-isopropyl-2,7-naphthyridin-3-yl)amino)pyrimidin-2-yl)-3-methylpiperidin-4-ol] | 20 to 30 | 15 to 20
CC(C)c1cnc(N2CC3(CCO3)C2)c2cnc(Nc3ccnc(N4CC[C@@H](O)[C@@](C)(F)C4)n3)cc12 [Example 54, (3S,4R)-3-fluoro-1-(4-((5-isopropyl-8-(1-oxa-6-azaspiro[3.3]heptan-6-yl)-2,7-naphthyridin-3-yl)amino)pyrimidin-2-yl)-3-methylpiperidin-4-ol] | 20 to 30 | 15 to 20
CC(C)c1cnc(-c2cn(C3COC3)cn2)c2cnc(Nc3ccnc(N4CC[C@@H](O)[C@@](C)(F)C4)n3)cc12 [Example 20, (3S,4R)-3-fluoro-1-(4-((5-isopropyl-8-(1-(oxetan-3-yl)-1H-imidazol-4-yl)-2,7-naphthyridin-3-yl)amino)pyrimidin-2-yl)-3-methylpiperidin-4-ol] | 30 to 50 | < 15
CC(C)c1ncc(-c2ncn(C)n2)c2cnc(Nc3ccnc(N4CC[C@@H](O)[C@@](C)(F)C4)n3)cc12 [Example 6, (3S,4R)-3-fluoro-1-(4-((5-isopropyl-8-(1-methyl-1H-1,2,4-triazol-3-yl)-2,6-naphthyridin-3-yl)amino)pyrimidin-2-yl)-3-methylpiperidin-4-ol] | > 50 | < 15
CC(C)c1cnc(-c2cn(C)nn2)c2cnc(Nc3ccnc(N4CC[C@@H](O)[C@@](C)(F)C4)n3)cc12 [Example 10, (3S,4R)-3-fluoro-1-(4-((5-isopropyl-8-(1-methyl-1H-1,2,3-triazol-4-yl)-2,7-naphthyridin-3-yl)amino)pyrimidin-2-yl)-3-methylpiperidin-4-ol] | 10 to 20 | < 15
CC(C)c1cnc(N2C[C@H](O)[C@H]2C)c2cnc(Nc3ccnc(N4CC[C@](C)(O)C(F)(F)C4)n3)cc12 (single isomer, unassigned) [Example 171, (S)-3,3-difluoro-1-(4-((8-((2R,3S)-3-hydroxy-2-methylazetidin-1-yl)-5-isopropyl-2,7-naphthyridin-3-yl)amino)pyrimidin-2-yl)-4-methylpiperidin-4-ol or (R)-3,3-difluoro-1-(4-((8-((2R,3S)-3-hydroxy-2-methylazetidin-1-yl)-5-isopropyl-2,7-naphthyridin-3-yl)amino)pyrimidin-2-yl)-4-methylpiperidin-4-ol] | 30 to 50 | < 15
CO[C@@H]1CCN(c2nccc(Nc3cc4c(C(C)C)cnc(N5CC(O)C5)c4cn3)n2)C[C@@H]1F [Example 147, 1-(6-((2-((3S,4R)-3-fluoro-4-methoxypiperidin-1-yl)pyrimidin-4-yl)amino)-4-isopropyl-2,7-naphthyridin-1-yl)azetidin-3-ol] | 20 to 30 | < 15
C[C@@H]1CCN1c1ncc([C@@H](C)OCC2COC2)c2cc(Nc3ccnc(N4CC[C@@H](O)[C@@](C)(F)C4)n3)ncc12 (single isomer, unassigned) [Example 184, (3S,4R)-3-fluoro-3-methyl-1-(4-((8-((R)-2-methylazetidin-1-yl)-5-((R)-1-(oxetan-3-ylmethoxy)ethyl)-2,7-naphthyridin-3-yl)amino)pyrimidin-2-yl)piperidin-4-ol or (3S,4R)-3-fluoro-3-methyl-1-(4-((8-((R)-2-methylazetidin-1-yl)-5-((S)-1-(oxetan-3-ylmethoxy)ethyl)-2,7-naphthyridin-3-yl)amino)pyrimidin-2-yl)piperidin-4-ol] | 30 to 50 | 20 to 30
